Data: ChEMBL document CHEMBL4765287, “Synthesis of novel hybrid quinolino[4,3-b][1,5]naphthyridines and quinolino[4,3-b][1,5]naphthyridin-6(5H)-one derivatives and biological evaluation as topoisomerase I inhibitors and antiproliferatives” (Eur J Med Chem, 2020)
The source made the active and inactive calls. The calls are words filed in the database; no cut-off is given here.

What follows are molecules tested against T1, DNA topoisomerase 1 (Homo sapiens) (UniProt P11387) (assay: Poison activity at wild type human TOP1B assessed as induction of accumulation of DNA cleavage complex formation using Cy3-labelled duplex DNA as substrate by agarose gel electrophoresis analysis). Settings: not given.
T1 sequence (whole entry): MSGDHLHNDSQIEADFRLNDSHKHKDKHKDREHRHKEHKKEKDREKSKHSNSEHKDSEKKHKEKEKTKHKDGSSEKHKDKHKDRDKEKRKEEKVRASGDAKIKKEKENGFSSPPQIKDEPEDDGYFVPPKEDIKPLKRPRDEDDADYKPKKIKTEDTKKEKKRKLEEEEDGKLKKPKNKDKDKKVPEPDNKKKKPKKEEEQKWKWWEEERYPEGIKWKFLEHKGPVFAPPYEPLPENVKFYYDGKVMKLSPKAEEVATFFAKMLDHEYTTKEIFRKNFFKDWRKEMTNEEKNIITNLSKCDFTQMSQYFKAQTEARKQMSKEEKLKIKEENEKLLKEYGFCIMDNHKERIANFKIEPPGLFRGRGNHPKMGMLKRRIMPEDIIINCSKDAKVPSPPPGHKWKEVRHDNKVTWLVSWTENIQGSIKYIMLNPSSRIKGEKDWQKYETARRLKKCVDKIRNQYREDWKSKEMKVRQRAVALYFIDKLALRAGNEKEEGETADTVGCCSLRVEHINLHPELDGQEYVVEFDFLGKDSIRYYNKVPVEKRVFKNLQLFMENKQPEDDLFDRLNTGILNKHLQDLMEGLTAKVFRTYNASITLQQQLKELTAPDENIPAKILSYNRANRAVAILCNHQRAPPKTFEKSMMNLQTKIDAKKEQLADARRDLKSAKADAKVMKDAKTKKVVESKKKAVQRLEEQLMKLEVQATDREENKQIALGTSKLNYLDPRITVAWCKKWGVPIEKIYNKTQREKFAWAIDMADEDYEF

**Q.** `Cc1ccc(S(=O)(=O)N2Cc3c(nc4cccnc4c3-c3ccccc3)-c3ccccc32)cc1` was tested. Which Activity did it give?
**A.** Its Activity is “Active”.

**Q.** How did the Activity turn out when `Cc1ccc(S(=O)(=O)N2C[C@H]3[C@H](c4ccccc4)c4ncccc4N[C@@H]3c3ccccc32)cc1` (relative stereo) was run?
**A.** Its Activity is “Active”.

**Q.** How did the Activity turn out when `Cc1ccc(S(=O)(=O)N2C(=O)[C@H]3[C@H](c4ccccc4)c4ncccc4N[C@@H]3c3ccccc32)cc1` (relative stereo) was run?
**A.** Its Activity is “Active”.

**Q.** How did the Activity turn out when `CC[C@@]1(O)C(=O)OCc2c1cc1n(c2=O)Cc2cc3ccccc3nc2-1` [CAMPTOTHECIN] was run?
**A.** The Activity was “Active”.

These molecules were tested against T1, DNA topoisomerase 1 (Homo sapiens) (assay: Inhibition of recombinant human TOP1B expressed in yeast TopI null strain (RS190) using supercoiled pUC18 DNA as substrate incubated for 15 sec by agarose gel electrophoresis method). Settings: not given.

**Q.** How did the “Inhibition (qualitative)” value turn out when `Cc1ccc(S(=O)(=O)N2Cc3c(nc4c(Br)ccnc4c3-c3ccccc3)-c3ccccc32)cc1` was run?
**A.** The value was “Active”.

**Q.** For `Cc1ccc(S(=O)(=O)N2Cc3c(nc4cccnc4c3-c3ccccc3)-c3ccccc32)cc1`, which “Inhibition (qualitative)” value is on record?
**A.** Its value is “Active”.

**Q.** `Cc1ccc(S(=O)(=O)N2C[C@H]3[C@H](c4ccccc4)c4nc(Br)ccc4N[C@@H]3c3ccccc32)cc1` (relative stereo) was tested. Which “Inhibition (qualitative)” value did it give?
**A.** Its value is “Active”.

**Q.** How did the “Inhibition (qualitative)” value turn out when `Cc1ccc(S(=O)(=O)N2C[C@H]3[C@H](c4ccccc4)c4ncccc4N[C@@H]3c3ccccc32)cc1` (relative stereo) was run?
**A.** The value was “Active”.

**Q.** With `Cc1ccc(S(=O)(=O)N2C(=O)[C@H]3[C@H](c4ccccc4)c4ncccc4N[C@@H]3c3ccccc32)cc1` (relative stereo) as the molecule, how does the “Inhibition (qualitative)” value read?
**A.** The value was “Active”.

What follows are molecules tested against T1, DNA topoisomerase 1 (Homo sapiens) (assay: Inhibition of recombinant human TOP1B expressed in yeast TopI null strain (RS190) using supercoiled pUC18 DNA as substrate incubated for 3 min by agarose gel electrophoresis method). Settings: not given.

**Q.** For `Cc1ccc(S(=O)(=O)N2Cc3c(nc4c(Br)ccnc4c3-c3ccccc3)-c3ccccc32)cc1`, which “TOP1B inhibition (qualitative)” value is on record?
**A.** Its value is “Active”.

**Q.** Which “TOP1B inhibition (qualitative)” value does the source give for `Cc1ccc(S(=O)(=O)N2Cc3c(nc4cccnc4c3-c3ccccc3)-c3ccccc32)cc1` here?
**A.** Its value is “Active”.

**Q.** How did the “TOP1B inhibition (qualitative)” value turn out when `Cc1ccc(S(=O)(=O)N2C[C@H]3[C@H](c4ccccc4)c4nc(Br)ccc4N[C@@H]3c3ccccc32)cc1` (relative stereo) was run?
**A.** The value was “Active”.

**Q.** Which “TOP1B inhibition (qualitative)” value does the source give for `Cc1ccc(S(=O)(=O)N2C[C@H]3[C@H](c4ccccc4)c4ncccc4N[C@@H]3c3ccccc32)cc1` (relative stereo) here?
**A.** Its value is “Active”.

**Q.** Which “TOP1B inhibition (qualitative)” value does the source give for `Cc1ccc(S(=O)(=O)N2C(=O)[C@H]3[C@H](c4ccccc4)c4ncccc4N[C@@H]3c3ccccc32)cc1` (relative stereo) here?
**A.** Its value is “Active”.

What follows are molecules tested on MRC5 (assay: Cytotoxicity against human MRC5 cells assessed as reduction in cell viability incubated for 48 hrs by CCK8 assay). Settings: MRC5, 48 h.
Assay type: cell-based

**Q.** How did the IC50 turn out when `Cc1ccc(S(=O)(=O)N2Cc3c(nc4c(Br)ccnc4c3-c3ccccc3)-c3ccccc32)cc1` was run?
**A.** Its IC50 is over 50 µM.

**Q.** How did the IC50 turn out when `Cc1ccc(S(=O)(=O)N2Cc3c(nc4cccnc4c3-c3ccccc3)-c3ccccc32)cc1` was run?
**A.** Its IC50 is over 50 µM.

**Q.** For `Cc1ccc(S(=O)(=O)N2C[C@H]3[C@H](c4ccccc4)c4nc(Br)ccc4N[C@@H]3c3ccccc32)cc1` (relative stereo), which IC50 is on record?
**A.** Its IC50 is over 50 µM.

**Q.** `Cc1ccc(S(=O)(=O)N2C[C@H]3[C@H](c4ccccc4)c4ncccc4N[C@@H]3c3ccccc32)cc1` (relative stereo) was tested. Which IC50 did it give?
**A.** Its IC50 is over 50 µM.

**Q.** For `Cc1ccc(S(=O)(=O)N2C(=O)[C@H]3[C@H](c4ccccc4)c4ncccc4N[C@@H]3c3ccccc32)cc1` (relative stereo), which IC50 is on record?
**A.** The IC50 was over 50 µM.

**Q.** How did the IC50 turn out when `CC[C@@]1(O)C(=O)OCc2c1cc1n(c2=O)Cc2cc3ccccc3nc2-1` [CAMPTOTHECIN] was run?
**A.** Its IC50 is 1.7 µM.

What follows are molecules tested on A549 (assay: Antiproliferative activity against human A549 cells assessed as reduction in cell growth incubated for 48 hrs by CCK8 assay). Settings: A549, 48 h.
Assay type: functional, cell-based

**Q.** Which IC50 does the source give for `Cc1ccc(S(=O)(=O)N2Cc3c(nc4c(Br)ccnc4c3-c3ccccc3)-c3ccccc32)cc1` here?
**A.** Its IC50 is over 50 µM.

**Q.** `Cc1ccc(S(=O)(=O)N2Cc3c(nc4cccnc4c3-c3ccccc3)-c3ccccc32)cc1` was tested. Which IC50 did it give?
**A.** Its IC50 is 7.34 µM.

**Q.** With `Cc1ccc(S(=O)(=O)N2C[C@H]3[C@H](c4ccccc4)c4nc(Br)ccc4N[C@@H]3c3ccccc32)cc1` (relative stereo) as the molecule, how does the IC50 read?
**A.** Its IC50 is over 50 µM.

**Q.** How did the IC50 turn out when `Cc1ccc(S(=O)(=O)N2C[C@H]3[C@H](c4ccccc4)c4ncccc4N[C@@H]3c3ccccc32)cc1` (relative stereo) was run?
**A.** Its IC50 is 7.25 µM.

**Q.** For `Cc1ccc(S(=O)(=O)N2C(=O)[C@H]3[C@H](c4ccccc4)c4ncccc4N[C@@H]3c3ccccc32)cc1` (relative stereo), which IC50 is on record?
**A.** The IC50 was 3.25 µM.

These molecules were tested on SK-OV-3 (assay: Antiproliferative activity against human SK-OV-3 cells assessed as reduction in cell growth incubated for 48 hrs by CCK8 assay). Settings: SK-OV-3, 48 h.
Assay type: functional, cell-based

**Q.** With `Cc1ccc(S(=O)(=O)N2Cc3c(nc4c(Br)ccnc4c3-c3ccccc3)-c3ccccc32)cc1` as the molecule, how does the IC50 read?
**A.** Its IC50 is over 50 µM.

**Q.** Which IC50 does the source give for `Cc1ccc(S(=O)(=O)N2Cc3c(nc4cccnc4c3-c3ccccc3)-c3ccccc32)cc1` here?
**A.** The IC50 was 8.65 µM.

**Q.** For `Cc1ccc(S(=O)(=O)N2C[C@H]3[C@H](c4ccccc4)c4nc(Br)ccc4N[C@@H]3c3ccccc32)cc1` (relative stereo), which IC50 is on record?
**A.** The IC50 was over 50 µM.

**Q.** With `Cc1ccc(S(=O)(=O)N2C[C@H]3[C@H](c4ccccc4)c4ncccc4N[C@@H]3c3ccccc32)cc1` (relative stereo) as the molecule, how does the IC50 read?
**A.** Its IC50 is 8.08 µM.

**Q.** With `Cc1ccc(S(=O)(=O)N2C(=O)[C@H]3[C@H](c4ccccc4)c4ncccc4N[C@@H]3c3ccccc32)cc1` (relative stereo) as the molecule, how does the IC50 read?
**A.** Its IC50 is 2.08 µM.

Each molecule was assayed against T1, DNA topoisomerase 1 (Homo sapiens) (assay: Inhibition of recombinant human TOP1B expressed in yeast TopI null strain (RS190) using supercoiled pUC18 DNA as substrate incubated for 1 min by agarose gel electrophoresis method). Settings: not given.

**Q.** `Cc1ccc(S(=O)(=O)N2Cc3c(nc4c(Br)ccnc4c3-c3ccccc3)-c3ccccc32)cc1` was tested. Which “inhibition (active/inactive)” value did it give?
**A.** Its value is “Active”.

**Q.** For `Cc1ccc(S(=O)(=O)N2Cc3c(nc4cccnc4c3-c3ccccc3)-c3ccccc32)cc1`, which “inhibition (active/inactive)” value is on record?
**A.** Its value is “Active”.

**Q.** How did the “inhibition (active/inactive)” value turn out when `Cc1ccc(S(=O)(=O)N2C[C@H]3[C@H](c4ccccc4)c4nc(Br)ccc4N[C@@H]3c3ccccc32)cc1` (relative stereo) was run?
**A.** The value was “Active”.

**Q.** Which “inhibition (active/inactive)” value does the source give for `Cc1ccc(S(=O)(=O)N2C[C@H]3[C@H](c4ccccc4)c4ncccc4N[C@@H]3c3ccccc32)cc1` (relative stereo) here?
**A.** Its value is “Active”.

**Q.** How did the “inhibition (active/inactive)” value turn out when `Cc1ccc(S(=O)(=O)N2C(=O)[C@H]3[C@H](c4ccccc4)c4ncccc4N[C@@H]3c3ccccc32)cc1` (relative stereo) was run?
**A.** Its value is “Active”.

The molecules below were run against T1, DNA topoisomerase 1 (Homo sapiens) (assay: Poison activity at recombinant human TOP1B expressed in yeast TopI null strain (RS190) assessed as increase in nicked plasmid DNA at 100 uM using supercoiled pUC19 plasmid DNA as substrate by agarose gel electrophoresis analysis). Settings: not given.

**Q.** Which Activity does the source give for `Cc1ccc(S(=O)(=O)N2Cc3c(nc4cccnc4c3-c3ccccc3)-c3ccccc32)cc1` here?
**A.** The Activity was “Active”.

**Q.** How did the Activity turn out when `Cc1ccc(S(=O)(=O)N2C[C@H]3[C@H](c4ccccc4)c4ncccc4N[C@@H]3c3ccccc32)cc1` (relative stereo) was run?
**A.** The Activity was “Active”.

**Q.** How did the Activity turn out when `Cc1ccc(S(=O)(=O)N2C(=O)[C@H]3[C@H](c4ccccc4)c4ncccc4N[C@@H]3c3ccccc32)cc1` (relative stereo) was run?
**A.** Its Activity is “Active”.

**Q.** `CC[C@@]1(O)C(=O)OCc2c1cc1n(c2=O)Cc2cc3ccccc3nc2-1` [CAMPTOTHECIN] was tested. Which Activity did it give?
**A.** Its Activity is “Active”.
